From publication PMC10746543, “Design principles for cyclin K molecular glue degraders” (Nature Chemical Biology, 2023)
Values joined by “and” are separate entries in the source; they are usually repeats but may differ in a detail not shown here. Equal entries are not always repeated. Where two headings read alike, the source gives them in different places.

How the values were obtained:
[1] = molecular target: T1, CDK12 (Homo sapiens, UniProt Q16531+Q9NYV4); assay: Label-free quantitative mass spectrometry in MDA-MB-231 cells, CDK12; format: cell-based; conditions: for CDK12 peptide count: label-free quantitative MS, replicate values; for CDK12 peptide count (DMSO-normalised): normalised to DMSO = 1, replicate values
T1 construct: endogenous in cells; host or cells: MDA-MB-231
Summary of the method: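 MDA-MB-231 cells treated 5 h with 1 µM cyclin K degrader or DMSO. Lysates digested with LysC and trypsin, then analysed by label-free diaPASEF LC-MS on a TimsTOF Pro2 with directDIA search and MS1 precursor quantification. Protein abundances scaled and analysed with limma.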

[2] = molecular target: CDK12–cyclin K (Homo sapiens, UniProt Q9NYV4); assay: Lanthascreen kinase binding assay, CDK12; conditions: duplicates
Experimental: Lanthascreen experiments were performed using commercially available reagents (Thermo Fisher) and according to the manufacturer’s instructions.

[3] = system: cyclin K–eGFP degradation reporter; assay: Cyclin K reporter stability analysis (dual-color cyclin K–eGFP reporter); format: cell-based, human; conditions: for reporter assay signal (normalized): replicates
Summary of the method: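 Readout: flow-cytometric eGFP/mCherry ratio (geometric means, round mCherry+ gate) relative to the average of three DMSO wells. Reporter line was HEK293T–Cas9, treated 5 h with compound.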

[4] = compound 0.038147 nM, series r37
[5] = compound 0.038147 nM, series r49
[6] = compound 0.152588 nM, series r37
[7] = compound 0.152588 nM, series r49
[8] = compound 0.610352 nM, series r37
[9] = compound 0.610352 nM, series r49
[10] = compound 9.76563 nM, series r37
[11] = compound 9.76563 nM, series r49
[12] = compound 39.0625 nM, series r37
[13] = compound 39.0625 nM, series r49
[14] = Supplementary Fig. 4, HEK293T cycKeGFP reporter, 5h, n=2, read-out: DC50 printed on reporter plot
[15] = source data sheet correlations, read-out: DC50

T1 sequence (Q9NYV4 whole entry): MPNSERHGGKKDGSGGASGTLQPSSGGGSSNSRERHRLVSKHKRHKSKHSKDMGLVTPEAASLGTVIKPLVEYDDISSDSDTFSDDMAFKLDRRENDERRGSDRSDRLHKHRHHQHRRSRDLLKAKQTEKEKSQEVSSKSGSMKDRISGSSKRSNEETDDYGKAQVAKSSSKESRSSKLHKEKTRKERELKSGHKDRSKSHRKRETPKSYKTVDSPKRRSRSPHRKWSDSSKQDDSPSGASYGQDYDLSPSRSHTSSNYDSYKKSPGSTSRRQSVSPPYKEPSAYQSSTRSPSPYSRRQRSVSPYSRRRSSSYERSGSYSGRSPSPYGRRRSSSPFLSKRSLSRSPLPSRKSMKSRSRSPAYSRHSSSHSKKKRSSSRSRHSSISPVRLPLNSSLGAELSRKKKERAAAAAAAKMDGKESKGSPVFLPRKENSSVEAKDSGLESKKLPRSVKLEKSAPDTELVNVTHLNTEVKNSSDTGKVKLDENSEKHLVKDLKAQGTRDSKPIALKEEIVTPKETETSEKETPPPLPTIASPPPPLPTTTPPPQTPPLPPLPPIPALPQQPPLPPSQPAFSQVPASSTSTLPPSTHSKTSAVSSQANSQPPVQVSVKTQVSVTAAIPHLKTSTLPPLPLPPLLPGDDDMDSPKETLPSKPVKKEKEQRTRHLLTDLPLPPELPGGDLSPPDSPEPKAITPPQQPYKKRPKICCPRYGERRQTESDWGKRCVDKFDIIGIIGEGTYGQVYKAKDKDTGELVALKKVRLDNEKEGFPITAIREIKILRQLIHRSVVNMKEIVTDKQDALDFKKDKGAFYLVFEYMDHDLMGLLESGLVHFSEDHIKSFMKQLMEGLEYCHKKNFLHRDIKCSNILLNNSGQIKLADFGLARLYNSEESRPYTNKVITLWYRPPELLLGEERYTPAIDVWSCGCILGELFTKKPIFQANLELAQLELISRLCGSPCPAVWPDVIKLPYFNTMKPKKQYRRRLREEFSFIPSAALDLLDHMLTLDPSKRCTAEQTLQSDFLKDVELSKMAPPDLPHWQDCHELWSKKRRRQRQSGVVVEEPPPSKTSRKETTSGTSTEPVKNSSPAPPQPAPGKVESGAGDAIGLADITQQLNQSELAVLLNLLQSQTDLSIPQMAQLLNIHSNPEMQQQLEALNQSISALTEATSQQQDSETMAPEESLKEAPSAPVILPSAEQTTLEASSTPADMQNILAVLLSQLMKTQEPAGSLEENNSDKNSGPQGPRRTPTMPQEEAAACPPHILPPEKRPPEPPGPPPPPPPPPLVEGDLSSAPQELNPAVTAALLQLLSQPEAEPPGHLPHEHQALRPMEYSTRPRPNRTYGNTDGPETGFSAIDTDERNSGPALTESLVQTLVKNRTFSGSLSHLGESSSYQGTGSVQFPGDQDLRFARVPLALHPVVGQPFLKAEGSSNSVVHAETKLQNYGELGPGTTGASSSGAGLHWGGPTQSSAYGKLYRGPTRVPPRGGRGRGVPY
T1 sequence (O75909 whole entry partner): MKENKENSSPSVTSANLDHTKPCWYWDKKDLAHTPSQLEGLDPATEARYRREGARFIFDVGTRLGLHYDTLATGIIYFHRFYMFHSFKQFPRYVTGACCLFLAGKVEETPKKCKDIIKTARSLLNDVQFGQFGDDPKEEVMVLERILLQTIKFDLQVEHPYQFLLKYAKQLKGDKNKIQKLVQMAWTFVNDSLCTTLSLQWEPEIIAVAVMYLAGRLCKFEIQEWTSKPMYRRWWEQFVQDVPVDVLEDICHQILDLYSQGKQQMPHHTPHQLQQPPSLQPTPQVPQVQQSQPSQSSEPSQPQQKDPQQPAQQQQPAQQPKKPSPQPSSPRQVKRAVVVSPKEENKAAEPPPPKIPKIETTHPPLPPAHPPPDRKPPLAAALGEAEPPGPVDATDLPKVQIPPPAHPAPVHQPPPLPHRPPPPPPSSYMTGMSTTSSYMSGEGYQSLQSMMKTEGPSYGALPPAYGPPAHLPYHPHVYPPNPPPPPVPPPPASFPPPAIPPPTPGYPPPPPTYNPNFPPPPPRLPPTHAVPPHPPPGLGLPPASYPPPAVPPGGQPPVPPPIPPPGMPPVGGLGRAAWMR
T1 sequence (Q16531 2-1140 limits assumed): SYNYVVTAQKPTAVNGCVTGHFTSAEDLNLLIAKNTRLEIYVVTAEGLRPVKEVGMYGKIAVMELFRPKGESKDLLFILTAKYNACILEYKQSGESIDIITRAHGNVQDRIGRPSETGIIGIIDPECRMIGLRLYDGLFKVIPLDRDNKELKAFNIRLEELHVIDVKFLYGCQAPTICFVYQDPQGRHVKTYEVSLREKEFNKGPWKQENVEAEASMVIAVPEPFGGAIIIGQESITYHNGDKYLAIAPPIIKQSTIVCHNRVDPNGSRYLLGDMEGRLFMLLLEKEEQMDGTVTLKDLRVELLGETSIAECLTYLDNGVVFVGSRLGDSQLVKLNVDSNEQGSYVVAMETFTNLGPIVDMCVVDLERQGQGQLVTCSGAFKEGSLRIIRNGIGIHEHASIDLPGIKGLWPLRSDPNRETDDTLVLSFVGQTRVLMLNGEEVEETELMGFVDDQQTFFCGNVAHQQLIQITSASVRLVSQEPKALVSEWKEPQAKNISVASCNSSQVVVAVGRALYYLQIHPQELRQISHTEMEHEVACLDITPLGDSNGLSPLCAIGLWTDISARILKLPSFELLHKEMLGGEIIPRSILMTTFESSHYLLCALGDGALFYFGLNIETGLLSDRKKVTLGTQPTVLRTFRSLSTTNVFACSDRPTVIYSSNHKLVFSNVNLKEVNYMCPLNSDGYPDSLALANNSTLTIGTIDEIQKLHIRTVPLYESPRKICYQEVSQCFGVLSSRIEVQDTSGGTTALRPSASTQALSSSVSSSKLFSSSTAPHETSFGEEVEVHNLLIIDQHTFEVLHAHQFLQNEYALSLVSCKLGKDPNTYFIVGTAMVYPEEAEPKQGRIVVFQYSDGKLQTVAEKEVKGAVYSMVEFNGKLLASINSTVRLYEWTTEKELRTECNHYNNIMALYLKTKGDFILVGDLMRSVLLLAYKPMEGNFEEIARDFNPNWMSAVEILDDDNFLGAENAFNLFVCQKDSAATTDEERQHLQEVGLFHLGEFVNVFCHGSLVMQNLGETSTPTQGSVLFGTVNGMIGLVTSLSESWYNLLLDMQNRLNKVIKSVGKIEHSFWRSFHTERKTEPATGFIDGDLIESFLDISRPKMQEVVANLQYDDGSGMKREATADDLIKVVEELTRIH
Chain of CDK12–cyclin K (Q9NYV4 713-1052): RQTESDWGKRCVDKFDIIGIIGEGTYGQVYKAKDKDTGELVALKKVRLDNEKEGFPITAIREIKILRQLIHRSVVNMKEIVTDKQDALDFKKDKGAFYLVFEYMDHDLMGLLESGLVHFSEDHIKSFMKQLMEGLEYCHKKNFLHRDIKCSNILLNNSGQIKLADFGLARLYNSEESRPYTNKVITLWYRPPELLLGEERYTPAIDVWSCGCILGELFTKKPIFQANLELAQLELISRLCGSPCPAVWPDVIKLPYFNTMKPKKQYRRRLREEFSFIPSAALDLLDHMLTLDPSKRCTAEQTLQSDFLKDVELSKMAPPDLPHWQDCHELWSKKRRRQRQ
Chain of CDK12–cyclin K (O75909 1-267 partner limits assumed): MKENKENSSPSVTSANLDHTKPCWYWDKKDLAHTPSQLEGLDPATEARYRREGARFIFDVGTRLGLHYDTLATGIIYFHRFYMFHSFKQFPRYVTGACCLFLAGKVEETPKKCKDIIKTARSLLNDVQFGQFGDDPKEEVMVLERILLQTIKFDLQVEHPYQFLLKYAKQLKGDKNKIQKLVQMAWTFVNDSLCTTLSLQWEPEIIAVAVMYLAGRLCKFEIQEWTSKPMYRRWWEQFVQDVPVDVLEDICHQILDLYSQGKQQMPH

CCC(CO)Nc1nc(NCc2ccc(-c3ccccn3)cc2)c2ncn(C(C)C)c2n1 (centres unmarked) [CR8, reference compound]
CDK12 peptide count [1]: 540.299 and 612.59 | CDK12 peptide count (DMSO-normalised) [1]: 0.6003 and 0.6327 | Lanthascreen raw signal, sheet CDK12 [2, 4]: 0.01304 and 0.01325 | Lanthascreen raw signal, sheet CDK12 [2, 5]: 0.007695 and 0.007446 | Lanthascreen raw signal, sheet CDK12 [2, 6]: 0.01428 and 0.01359 | Lanthascreen raw signal, sheet CDK12 [2, 7]: 0.009378 and 0.01005 | Lanthascreen raw signal, sheet CDK12 [2, 8]: 0.015 and 0.0141 | Lanthascreen raw signal, sheet CDK12 [2, 9]: 0.009165 and 0.0112 | Lanthascreen raw signal, sheet CDK12 ([2]; compound 0.76 nM, series r25): 0.01077 and 0.009668 | Lanthascreen raw signal, sheet CDK12 ([2]; compound 1.02544 nM, series r1): 0.009016 and 0.007993 | Lanthascreen raw signal, sheet CDK12 ([2]; compound 3.15521 nM, series r1): 0.009443 and 0.008694 | Lanthascreen raw signal, sheet CDK12 ([2]; compound 4.57247 nM, series r25): 0.009656 and 0.009902 | Lanthascreen raw signal, sheet CDK12 ([2]; compound 9.46563 nM, series r1): 0.008963 and 0.008112 | Lanthascreen raw signal, sheet CDK12 [2, 10]: 0.01368 and 0.01299 | Lanthascreen raw signal, sheet CDK12 [2, 11]: 0.009408 and 0.009212 | Lanthascreen raw signal, sheet CDK12 ([2]; compound 13.7174 nM, series r25): 0.01017 and 0.01059 | Lanthascreen raw signal, sheet CDK12 ([2]; compound 31.5521 nM, series r1): 0.006752 and 0.007539 | Lanthascreen raw signal, sheet CDK12 [2, 12]: 0.01193 and 0.01223 | Lanthascreen raw signal, sheet CDK12 [2, 13]: 0.009305 and 0.008784 | Lanthascreen raw signal, sheet CDK12 ([2]; compound 41.1523 nM, series r25): 0.009709 and 0.009531 | Lanthascreen raw signal, sheet CDK12 ([2]; compound 99.3891 nM, series r1): 0.006201 and 0.006527 | Lanthascreen raw signal, sheet CDK12 ([2]; compound 123.457 nM, series r25): 0.008131 and 0.007441 | Lanthascreen raw signal, sheet CDK12 ([2]; compound 156.25 nM, series r37): 0.00959 and 0.00993 | Lanthascreen raw signal, sheet CDK12 ([2]; compound 156.25 nM, series r49): 0.007819 and 0.007288 | Lanthascreen raw signal, sheet CDK12 ([2]; compound 315.521 nM, series r1): 0.007121 and 0.006383 | Lanthascreen raw signal, sheet CDK12 ([2]; compound 370.37 nM, series r25): 0.007201 and 0.007104 | Lanthascreen raw signal, sheet CDK12 ([2]; compound 625 nM, series r37): 0.007458 and 0.007383 | Lanthascreen raw signal, sheet CDK12 ([2]; compound 625 nM, series r49): 0.006302 and 0.006427 | Lanthascreen raw signal, sheet CDK12 ([2]; compound 2500 nM, series r37): 0.006338 and 0.006017 | Lanthascreen raw signal, sheet CDK12 ([2]; compound 2500 nM, series r49): 0.006233 and 0.005662 | Lanthascreen raw signal, sheet CDK12 ([2]; compound 3155.21 nM, series r1): 0.005736 and 0.005607 | Lanthascreen raw signal, sheet CDK12 ([2]; compound 3333.33 nM, series r25): 0.00631 and 0.006815 | Lanthascreen raw signal, sheet CDK12 ([2]; compound 10000 nM, series r25): 0.004829 and 0.005941 | Lanthascreen raw signal, sheet CDK12 ([2]; compound 10000 nM, series r37): 0.006588 and 0.005825 | Lanthascreen raw signal, sheet CDK12 ([2]; compound 10000 nM, series r49): 0.006042 and 0.005923 | Lanthascreen raw signal, sheet CDK12 ([2]; compound 10002 nM, series r1): 0.006385 and 0.006398 | reporter assay signal (normalized) ([3]; 2 nM): 0.8972 and 0.9042 | reporter assay signal (normalized) ([3]; 3 nM): 0.9215 and 0.8933 | reporter assay signal (normalized) ([3]; 4.5 nM): 0.9042 and 0.8823 | reporter assay signal (normalized) ([3]; 7.68 nM): 0.8744 and 0.8637 | reporter assay signal (normalized) ([3]; 22.8 nM): 0.7879 and 0.7853 | reporter assay signal (normalized) ([3]; 34.2 nM): 0.7383 and 0.7347 | reporter assay signal (normalized) ([3]; 51.3 nM): 0.6912 and 0.706 | reporter assay signal (normalized) ([3]; 77 nM): 0.6707 and 0.6773 | reporter assay signal (normalized) ([3]; 260 nM): 0.5992 and 0.6647 | reporter assay signal (normalized) ([3]; 390 nM): 0.6455 and 0.6368 | reporter assay signal (normalized) ([3]; 585 nM): 0.6031 and 0.6411 | reporter assay signal (normalized) ([3]; 877 nM): 0.5764 and 0.6073 | reporter assay signal (normalized) ([3]; 1970 nM): 0.6031 and 0.6571 | reporter assay signal (normalized) ([3]; 2960 nM): 0.6526 and 0.6453 | reporter assay signal (normalized) ([3]; 4440 nM): 0.6125 and 0.6655 | reporter assay signal (normalized) ([3]; 6670 nM): 0.6345 and 0.6267 | reporter assay signal (normalized) ([3]; 10000 nM): 0.6031 and 0.6495 | cyclin K reporter degradation, result in words ([3]; HEK293T): potent degraders | DC50 [3, 14]: 15 nM | DC50 [3, 15]: 24 nM

Cn1cc(-n2cnc3c(NCc4nc5cc(Cl)c(Cl)cc5[nH]4)nc(N4CCOCC4)nc32)cn1 [SR-4835]
CDK12 peptide count [1]: 613.534 and 654.471 | CDK12 peptide count (DMSO-normalised) [1]: 0.6817 and 0.676 | Lanthascreen raw signal, sheet CDK12 ([2]; compound 0.038147 nM, series r13): 0.01046 and 0.009983 | Lanthascreen raw signal, sheet CDK12 [2, 4]: 0.01351 and 0.01182 | Lanthascreen raw signal, sheet CDK12 [2, 5]: 0.007647 and 0.00729 | Lanthascreen raw signal, sheet CDK12 ([2]; compound 0.152588 nM, series r13): 0.009614 and 0.01041 | Lanthascreen raw signal, sheet CDK12 [2, 6]: 0.01248 and 0.01201 | Lanthascreen raw signal, sheet CDK12 [2, 7]: 0.009969 and 0.01054 | Lanthascreen raw signal, sheet CDK12 ([2]; compound 0.610352 nM, series r13): 0.01066 and 0.01021 | Lanthascreen raw signal, sheet CDK12 [2, 8]: 0.01219 and 0.01189 | Lanthascreen raw signal, sheet CDK12 [2, 9]: 0.01058 and 0.01056 | Lanthascreen raw signal, sheet CDK12 ([2]; compound 1.02544 nM, series r1): 0.008952 and 0.009485 | Lanthascreen raw signal, sheet CDK12 ([2]; compound 3.15521 nM, series r1): 0.008128 and 0.008332 | Lanthascreen raw signal, sheet CDK12 ([2]; compound 9.46563 nM, series r1): 0.008981 and 0.006574 | Lanthascreen raw signal, sheet CDK12 ([2]; compound 9.76563 nM, series r13): 0.009284 and 0.009045 | Lanthascreen raw signal, sheet CDK12 [2, 10]: 0.009426 and 0.01016 | Lanthascreen raw signal, sheet CDK12 [2, 11]: 0.009267 and 0.008766 | Lanthascreen raw signal, sheet CDK12 ([2]; compound 31.5521 nM, series r1): 0.007535 and 0.008876 | Lanthascreen raw signal, sheet CDK12 ([2]; compound 39.0625 nM, series r13): 0.008439 and 0.008567 | Lanthascreen raw signal, sheet CDK12 [2, 12]: 0.009028 and 0.008999 | Lanthascreen raw signal, sheet CDK12 [2, 13]: 0.00795 and 0.007253 | Lanthascreen raw signal, sheet CDK12 ([2]; compound 99.3891 nM, series r1): 0.006758 and 0.007046 | Lanthascreen raw signal, sheet CDK12 ([2]; compound 156.25 nM, series r13): 0.008038 and 0.008664 | Lanthascreen raw signal, sheet CDK12 ([2]; compound 156.25 nM, series r37): 0.006404 and 0.007018 | Lanthascreen raw signal, sheet CDK12 ([2]; compound 156.25 nM, series r49): 0.006482 and 0.006079 | Lanthascreen raw signal, sheet CDK12 ([2]; compound 315.521 nM, series r1): 0.006236 and 0.005797 | Lanthascreen raw signal, sheet CDK12 ([2]; compound 625 nM, series r13): 0.008328 and 0.007759 | Lanthascreen raw signal, sheet CDK12 ([2]; compound 625 nM, series r37): 0.006628 and 0.006561 | Lanthascreen raw signal, sheet CDK12 ([2]; compound 625 nM, series r49): 0.005855 and 0.00595 | Lanthascreen raw signal, sheet CDK12 ([2]; compound 2500 nM, series r13): 0.007658 and 0.007398 | Lanthascreen raw signal, sheet CDK12 ([2]; compound 2500 nM, series r37): 0.006178 and 0.006049 | Lanthascreen raw signal, sheet CDK12 ([2]; compound 2500 nM, series r49): 0.005776 and 0.005723 | Lanthascreen raw signal, sheet CDK12 ([2]; compound 3155.21 nM, series r1): 0.006081 and 0.005159 | Lanthascreen raw signal, sheet CDK12 ([2]; compound 10000 nM, series r13): 0.007533 and 0.00783 | Lanthascreen raw signal, sheet CDK12 ([2]; compound 10000 nM, series r37): 0.005313 and 0.005643 | Lanthascreen raw signal, sheet CDK12 ([2]; compound 10000 nM, series r49): 0.005957 and 0.005417 | Lanthascreen raw signal, sheet CDK12 ([2]; compound 10002 nM, series r1): 0.004606 and 0.00667 | DC50 [3, 14]: 39 nM | DC50 [3, 15]: 14 nM
